≈ marks a conversion by molar mass, not a printed value. Where two headings read alike, the source gives them in different places.
Experiments:
[1] = system: E. coli MC1061 containing pCBSal; experiment: MIC (LD 90) of maximally induced tetA (plasmid pCBSal); type: cell-based; details: Escherichia coli, read-out: MIC (LD 90) of Maximally Induced tetA, pCBSal
Description: (§1) E. coli MC1061 containing either pGG57, pCBSal or pGG75 were used to determine the MIC (LD 90) for tetracycline as well as six tetracycline analogs. […] MIC studies were performed in the presence of 0.01 mM IPTG for E. coli MC1061 containing pGG57. […] All of these MIC studies were done in duplicate.

[2] = system: E. coli MC1061 containing pGG57; experiment: microbe, parasite or virus in culture; type: cell-based; details: Escherichia coli
Description: as §1

[3] = system: E. coli MC1061 containing pGG75; experiment: MIC (LD 90) of maximally induced tetC (plasmid pGG75); type: cell-based; details: Escherichia coli, read-out: MIC (LD 90) of Maximally Induced tetC, pGG75
Description: as §1

[4] = system: strain KB3ind; type: cell-based, E. coli; details: strain KB3ind; plate assay (plate or liquid assay)
Description: (§2) To detect tetracyclines, a plate assay is developed that is similar to one described previously (11). Cells are grown in Luria Broth (adjusted with NaOH to pH 7.5) with 25 μg/ml of kanamycin to a cell density of 0.5 absorbance units (600 nm). A 25 ml sample of the culture is harvested by centrifugation and resuspended in 1 ml of broth. The cells are mixed with 25 ml of soft agar (1%, wt/vol) and poured onto 100 ml of LB (pH 7.5)+ kanamycin, within a 22 cm^2 NUNC plate (Corning). Samples are applied by spotting from 2 to 15 μl, or by applying a disc impregnated with a compound, and the plate is incubated for 3-4 hours at 37° C. The plates are overlaid with a solution containing 13.5 mg of 6-bromo-2-naphthyl-β-D-galactopyranoside side and 86.5 mg of fast blue RR (Sigma) dissolved in 2 ml of dimethylsulfoxide, to which 25 ml of soft agar is added. β-Galactosidase is detected by the presence of a purple spot.

[5] = system: tetracycline efflux pump (strain KB4 or KB5); experiment: Inhibition Assay, plate assay (agar with 5 ng/ml of tetracycline); type: cell-based, E. coli; details: strain KB4 or KB5, spotted on plate
Description: as §2
Two assays are developed for detecting inhibitors of the tetA gene product (using strain KB5), or the tetK gene product (using strain KB4). In the Inhibition Assay, cells of strain KB4 or KB5 are treated as described in the tetracycline screen above, except that the agar medium contains 5 ng/ml of tetracycline. Alternatively a Liquid Assay is also developed. Cells are first grown in LB (pH 7.5). Then cells are shifted to medium containing 5 ng/ml of tetracycline, and tetracycline-containing samples are added to aliquots. Cells are then incubated and assayed as described for the Tetracycline Assay. […] However, the intracellular concentration is reduced in tetracycline resistant strains due to the action of the efflux pump, so more tetracycline would be required in the medium to accumulate sufficient tetracycline inside the cell to induce. The Inhibition Assay is designed to detect compounds that cause β-galactosidase induction in the presence of sub-inducing levels of tetracycline for a resistant strain.

[6] = system: strain KB3ind; experiment: Tetracycline liquid assay (β-galactosidase, Miller Units); type: cell-based, E. coli; details: Escherichia coli
Description: (§3) Alternatively, a liquid assay is also used. Cells are grown in LB (pH 7.5), and tetracycline-containing samples are added to aliquots when the density of the culture is 0.1 OD units. After 3-4 generations of the cells, each aliquot is measured for β-galactosidase activity as described (10, 12) and Miller Units (12) are determined. […] For both the plate and liquid assays, this strain is more sensitive than a previously reported screening organism (11).

[7] = system: Tn10 derivative of strain KB3ind; experiment: Induction in liquid culture, Tn10 strain; type: cell-based, E. coli; details: Escherichia coli, read-out: concentration for full induction of β-galactosidase, Tn10 strain, liquid culture
Description: (§4) Cells are added to tetracycline to the final concentration indicated as described in FIG. 7. The sensitive strain is the tetracycline screening organism KB3ind, which induces fully when grown in the presence of 5-10 ng/ml of tetracycline. In contrast, the strain containing the Tn10 element, conferring strong tetracycline resistance, induces fully when the concentration of tetracycline is above 1 μg/ml.
as §3

[8] = system: strain KB4; experiment: Induction in liquid culture, strain KB4; type: cell-based, E. coli; details: Escherichia coli, read-out: concentration for full induction of β-galactosidase
Description: as §4, §3

[9] = system: strain MC1061 with plasmid pGG58; experiment: microbe, parasite or virus in culture; details: Escherichia coli, read-out: tetracycline resistance
[10] = system: strain KB5; experiment: MIC of strain KB5; type: cell-based, E. coli; details: Escherichia coli
[11] = system: strains containing pCB258; experiment: microbe, parasite or virus in culture; details: Escherichia coli
[12] = system: strain KB4; experiment: microbe, parasite or virus in culture; details: Escherichia coli, read-out: tetracycline resistance conferred
[13] = system: Tn10 derivative of KB3ind; experiment: microbe, parasite or virus in culture; details: Escherichia coli, read-out: tetracycline resistance

CN(C)C1C(=O)C(C(N)=O)=C(O)C2(O)C(=O)C3=C(O)c4c(O)cccc4C(C)(O)C3CC12 (centres unmarked) [Tetracycline]
MIC [1]: 150 µg/mL (≈ 338 µM)
MIC ([2]; read-out: MIC (LD 90) of Maximally Induced tetK, pGG57): 125 µg/mL (≈ 281 µM)
MIC ([2]; read-out: tetracycline resistance conferred): 25 µg/mL (≈ 56.3 µM)
MIC [3]: 100 µg/mL (≈ 225 µM)
response in the Tetracycline Assay (β-galactosidase induction) [4]: capable of detecting
Tetracycline Detection, amount detected in Inhibition plate assay [5]: ≥ 1 ng
Tetracycline Detection, amount detected in Inhibition plate assay ([5]; listed as tetracycline): 1 ng
EC (full induction) ([6]; liquid culture, read-out: concentration for full induction of β-galactosidase): 0.005 to 0.01 µg/mL
minimal effective concentration ([6]; read-out: lowest concentration detected in liquid assay): 0.0001 µg/mL
EC (full induction) [7]: > 1 µg/mL
EC (full induction) [8]: 0.03 µg/mL
MIC [9]: 15 µg/mL (≈ 33.8 µM)
MIC [10]: ~10 µg/mL
MIC ([11]; PCB258): 50 µg/mL (≈ 113 µM)
MIC ([11]; PCB258, read-out: tetracycline resistance conferred): 40 µg/mL (≈ 90 µM)
MIC [12]: < 10 µg/mL
MIC [13]: > 100 µg/mL
